Assay results taken from ChEMBL document CHEMBL3621191, “Pyrimidine sulfonylacetanilides with improved potency against key mutant viruses of HIV-1 by specific targeting of a highly conserved residue” (Eur J Med Chem, 2015).

Columns and labels:
[1] = system: Human immunodeficiency virus 1; assay: Antiviral activity against HIV1 3B expressing reverse transcriptase K103N + Y181C mutant infected in human MT4 cells assessed as reduction in virus-induced cytopathogenicity incubated for 4 days by MTT method; assay type: functional, organism-based; conditions: Human immunodeficiency virus 1, 3B, MT4, 96 h
[2] = Selectivity index, ratio of CC50 for human MT4 cells to EC50 for HIV1 3B infected in human MT4 cells; assay type: toxicity, cell-based; conditions: read-out: Ratio CC50/EC50
[3] = Cytotoxicity against human MT4 cells assessed as reduction in cell viability incubated for 4 days by MTT assay; assay type: cell-based
[4] = system: Human immunodeficiency virus 2; assay: Antiviral activity against HIV2 ROD infected in human MT4 cells assessed as reduction in virus-induced cytopathogenicity incubated for 4 days by MTT method; assay type: functional, organism-based; conditions: Human immunodeficiency virus 2, ROD, MT4, 96 h
[5] = system: Human immunodeficiency virus 1; assay: Antiviral activity against HIV1 expressing reverse transcriptase Y181C mutant; assay type: functional, organism-based
[6] = system: Human immunodeficiency virus 1; assay: Antiviral activity against HIV1 expressing reverse transcriptase F227L + V106A mutant; assay type: functional, organism-based
[7] = biological target: Human immunodeficiency virus type 1 reverse transcriptase (Human immunodeficiency virus 1, UniProt Q72547); assay: Inhibition of HIV1 reverse transcriptase p66/p51 assessed as inhibition of biotin-dUTP incorporation using poly (rA)/oligo(dT)16 as template/primer incubated for 40 mins
[8] = system: Human immunodeficiency virus 1; assay: Antiviral activity against HIV1 expressing reverse transcriptase K103N mutant; assay type: functional, organism-based
[9] = system: Human immunodeficiency virus 1; assay: Antiviral activity against HIV1 expressing reverse transcriptase L100I mutant; assay type: functional, organism-based
[10] = system: Human immunodeficiency virus 1; assay: Antiviral activity against HIV1 3B infected in human MT4 cells assessed as reduction in virus-induced cytopathogenicity incubated for 4 days by MTT method; assay type: functional, organism-based; conditions: Human immunodeficiency virus 1, 3B, MT4, 96 h
[11] = system: Human immunodeficiency virus 1; assay: Antiviral activity against HIV1 expressing reverse transcriptase Y188L mutant; assay type: functional, organism-based
[12] = system: Human immunodeficiency virus 1; assay: Antiviral activity against HIV1 expressing reverse transcriptase E138K mutant; assay type: functional, organism-based

| SMILES | EC50 [1] [nM] | selectivity ratio [2] | CC50 at 96 h [3] [nM] | EC50 [4] [nM] | EC50 [5] [nM] | EC50 [6] [nM] | IC50 [7] [nM] | EC50 [8] [nM] | EC50 [9] [nM] | EC50 [10] [nM] | EC50 [11] [nM] | EC50 [12] [nM] |
| --- | --- | --- | --- | --- | --- | --- | --- | --- | --- | --- | --- | --- |
| Cc1cc(C#N)cc(C)c1Oc1ccnc(SCC(=O)Nc2ccc(C#N)cc2)n1 | > 301000 | > 71 | > 301000 | > 301000 | – | – | – | – | – | – | – | – |
| Cc1cc(C#N)cc(C)c1Oc1ccnc(S(=O)(=O)CC(=O)Nc2ccc(F)cc2)n1 | 4360 | 2930 | 26100 | > 26100 | 681 | 1480 | 1840 | 40.9 | 749 | 8.9 | 3970 | 227 |
| Cc1cc(C#N)cc(C)c1Oc1ccnc(S(=O)(=O)CC(=O)Nc2ccccc2Cl)n1 | > 12500 | 8.7 | 12500 | > 12500 | – | – | 143000 | – | – | 1440 | – | – |
| Cc1cc(C#N)cc(C)c1Oc1ccnc(S(=O)(=O)CC(=O)Nc2cccc(Cl)c2)n1 | 7220 | 831 | 25400 | > 25400 | – | – | 978 | – | – | 30.6 | – | – |
| Cc1cc(C#N)cc(C)c1Oc1ccnc(S(=O)(=O)CC(=O)Nc2ccc(Cl)cc2)n1 | 1050 | 4740 | 16600 | > 16600 | 129 | 678 | 720 | 10.1 | 190 | 3.5 | 1420 | 41.6 |
| Cc1cc(C#N)cc(C)c1Oc1ccnc(S(=O)(=O)CC(=O)Nc2ccc(Cl)cc2Cl)n1 | > 10400 | 36.5 | 10400 | > 10400 | – | – | 15300 | – | – | 285 | – | – |
| Cc1cc(C#N)cc(C)c1Oc1ccnc(S(=O)(=O)CC(=O)Nc2ccc(Cl)c(Cl)c2)n1 | 1180 | 666 | 11700 | > 11700 | 326 | 3200 | 177 | 44.8 | 468 | 17.5 | 1460 | 244 |
| Cc1cc(C#N)cc(C)c1Oc1ccnc(S(=O)(=O)CC(=O)Nc2cc(Cl)cc(Cl)c2)n1 | > 24000 | 58.9 | 24000 | > 24000 | – | – | 918 | – | – | 407 | – | – |
| Cc1cc(C#N)cc(C)c1Oc1ccnc(S(=O)(=O)CC(=O)Nc2ccc(Br)cc2)n1 | 957 | 5980 | 15600 | > 15600 | 116 | 479 | 728 | 10 | 184 | 2.6 | 957 | 39.9 |
| Cc1cc(C#N)cc(C)c1Oc1ccnc(S(=O)(=O)CC(=O)Nc2ccc(C#N)cc2)n1 | 425 | ≥ 3540 | ≥ 6010 | ≥ 32200 | 31.3 | 127 | 65 | 3.4 | 67 | 1.7 | 313 | 16.5 |
| Cc1cc(C#N)cc(C)c1Oc1ccnc(S(=O)(=O)CC(=O)Nc2ccc(C#N)cc2F)n1 | > 269000 | > 7810 | > 269000 | > 269000 | – | – | 296 | – | – | 34.4 | – | – |
| Cc1cc(C#N)cc(C)c1Oc1ccnc(S(=O)(=O)CC(=O)Nc2cccc([N+](=O)[O-])c2)n1 | ≥ 7490 | 501 | 23600 | > 23600 | – | – | 1410 | – | – | 47.1 | – | – |
| Cc1cc(C#N)cc(C)c1Oc1ccnc(S(=O)(=O)CC(=O)Nc2ccc([N+](=O)[O-])cc2)n1 | 385 | 45800 | 59600 | > 59600 | 40.6 | 141 | 53 | 7.3 | 111 | 1.3 | 278 | 25.7 |
| Cc1cc(C#N)cc(C)c1Oc1ccnc(S(=O)(=O)CC(=O)Nc2ccccc2)n1 | > 29300 | 1120 | 29300 | > 29300 | – | – | 15700 | – | – | 26 | – | – |
| Cc1cccc(NC(=O)CS(=O)(=O)c2nccc(Oc3c(C)cc(C#N)cc3C)n2)c1 | > 25700 | 75 | 25700 | > 25700 | – | – | 133000 | – | – | 344 | – | – |
| Cc1ccc(NC(=O)CS(=O)(=O)c2nccc(Oc3c(C)cc(C#N)cc3C)n2)cc1 | ≥ 9620 | 1060 | 7490 | > 7490 | – | – | 766 | – | – | 7.1 | – | – |
| Cc1ccc(NC(=O)CS(=O)(=O)c2nccc(Oc3c(C)cc(C#N)cc3C)n2)cc1C | > 13900 | 179 | 13900 | > 13900 | – | – | 27300 | – | – | 77.7 | – | – |
| COc1ccc(NC(=O)CS(=O)(=O)c2nccc(Oc3c(C)cc(C#N)cc3C)n2)cc1 | > 5100 | 136 | 5100 | > 5100 | – | – | 4660 | – | – | 37.6 | – | – |
| Cc1cc(C#N)cc(C)c1Oc1ccnc(S(=O)(=O)CC(=O)Nc2ccccc2F)n1 | > 28400 | 176 | 28400 | > 28400 | – | – | 24300 | – | – | 161 | – | – |
| Cc1cc(C#N)cc(C)c1Oc1ccnc(S(=O)(=O)CC(=O)Nc2cccc(F)c2)n1 | 7150 | 1680 | 25900 | > 25900 | – | – | 220 | – | – | 15.4 | – | – |
| O=C1Nc2ccc(Cl)cc2[C@@](C#CC2CC2)(C(F)(F)F)O1 [EFAVIRENZ] | – | – | > 6340 | – | 8.2 | 228 | – | – | 95 | 6.3 | 348 | 5.4 |
| Cc1cc(C#N)cc(C)c1Oc1nc(Nc2ccc(C#N)cc2)nc(N)c1Br [ETRAVIRINE] | – | > 1120 | > 4600 | – | 11.5 | 14.9 | – | 3.2 | 17.7 | – | 15.9 | 16.8 |
| Cc1ccnc2c1NC(=O)c1cccnc1N2C1CC1 [NEVIRAPINE] | ≥ 7580 | – | > 15000 | – | ≥ 12400 | > 15000 | – | 9350 | 3460 | – | > 15000 | 289 |
